In ChEMBL document CHEMBL3804813, “Discovery and optimization of new benzofuran derivatives against p53-independent malignant cancer cells through inhibition of HIF-1 pathway” (Bioorg Med Chem Lett, 2016) one finds IC50 and inhibition data, which are given here for 31 compounds.

Active and inactive are the calls of the source. No cut-off for these calls is given here. A value given as a limit tells only on which side of the number the result lay.

The nature of assay [1]: Antiproliferative activity against human HCT116 cells expressing wild type p53 assessed as growth inhibition after 72 hrs by MTT assay. To be noted: HCT-116, 72 h. The assay is classed as functional, cell-based.
Assay [2] can be described thus: Antiproliferative activity against human p53-null HCT116 cells assessed as growth inhibition after 72 hrs by MTT assay. It is filed as functional, cell-based. To be noted: HCT-116, 72 h.
For another assay, the system named is MCF7. Briefly: Antiproliferative activity against human MCF7 cells assessed as growth inhibition after 72 hrs by MTT assay. The assay is classed as functional, cell-based. To be noted: MCF7, 72 h. For orientation: Tetrazolium assays rely on reduction of a dye to a coloured formazan, in cell work by metabolically active cells.
The nature of assay [3]: Antiproliferative activity against human MDA-MB-435S cells assessed as growth inhibition after 72 hrs by MTT assay. It is filed as functional, cell-based.
Assay [4] concerns the target Hypoxia-inducible factor 1-alpha (Homo sapiens) (UniProt Q16665). Briefly: Inhibition of HIF-1 (unknown origin) expressed in human MCF7 cells co-transfected with hypoxia reporter plasmid p(HRE)3-Luc at 20 uM measured under hypoxia condition after 24 hrs by dual-luciferase reporter assay. The assay is classed as cell-based.
Assay [5] in a line: Decrease in procaspase-3 expression level in human p53-null HCT116 -/- cells at 10 uM after 24 hrs by western blot analysis. It is filed as functional, cell-based. To be noted: HCT-116. Background: A western blot detects proteins with antibodies after separation by electrophoresis.
A short description of assay [6]: Decrease in procaspase-9 expression level in human p53-null HCT116 -/- cells at 10 uM after 24 hrs by western blot analysis. It is filed as functional, cell-based. To be noted: HCT-116.

Chain of Hypoxia-inducible factor 1-alpha (Homo sapiens) (Q16665 whole entry, looked up): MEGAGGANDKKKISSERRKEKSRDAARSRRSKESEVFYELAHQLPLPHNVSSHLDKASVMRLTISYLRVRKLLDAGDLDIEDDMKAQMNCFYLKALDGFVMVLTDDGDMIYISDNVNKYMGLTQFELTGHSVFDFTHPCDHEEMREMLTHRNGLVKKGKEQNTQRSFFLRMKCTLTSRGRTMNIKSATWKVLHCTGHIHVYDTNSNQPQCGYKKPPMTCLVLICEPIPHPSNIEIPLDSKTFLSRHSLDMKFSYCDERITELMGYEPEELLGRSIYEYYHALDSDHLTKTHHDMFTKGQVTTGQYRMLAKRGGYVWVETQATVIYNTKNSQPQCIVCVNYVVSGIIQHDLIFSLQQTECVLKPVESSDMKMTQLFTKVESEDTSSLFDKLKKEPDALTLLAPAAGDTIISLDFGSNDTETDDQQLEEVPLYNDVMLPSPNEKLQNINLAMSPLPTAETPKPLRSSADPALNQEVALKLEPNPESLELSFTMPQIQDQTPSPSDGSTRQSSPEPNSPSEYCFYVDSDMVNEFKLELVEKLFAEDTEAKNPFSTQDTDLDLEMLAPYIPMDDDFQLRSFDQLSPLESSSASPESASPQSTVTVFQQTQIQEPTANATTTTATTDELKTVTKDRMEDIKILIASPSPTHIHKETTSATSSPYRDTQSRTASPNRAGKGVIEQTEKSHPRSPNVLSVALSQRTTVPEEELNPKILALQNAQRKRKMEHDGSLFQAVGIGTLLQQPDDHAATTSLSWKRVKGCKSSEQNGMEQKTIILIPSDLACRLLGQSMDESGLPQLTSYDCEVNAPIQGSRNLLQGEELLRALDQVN

For `COc1ccc(N(Cc2ccccc2)S(=O)(=O)c2ccc(Cl)cc2)cc1`, the IC50 (usually the point on the concentration scale where inhibition reaches its midpoint) was 18.3 µM in assay [1] and more than 40 µM in assay [2].
In the case of `CCOC(=O)c1oc2ccc(N(Cc3ccccc3)S(=O)(=O)c3ccc(C(F)(F)F)cc3)cc2c1C`, the 50% inhibitory concentration (IC50) in assay [1] was determined as 26.7 µM; in assay [2], 12.7 µM.
Turning to `CCOC(=O)c1oc2ccc(N(Cc3ccccc3)S(=O)(=O)c3ccc(C)cc3)cc2c1C`, the IC50 in assay [1] and in assay [2] was more than 40 µM throughout.
For `Cc1c(C(=O)NCCCn2ccnc2)oc2ccc(N(Cc3ccccc3)S(=O)(=O)c3ccc(Cl)cc3)cc12`, the IC50 was 17.1 µM in assay [1], 5 µM in assay [2], 31.8 µM in the assay with MCF7 and 5.6 µM in assay [3]. Besides, the inhibition (in general, the share of the control response that was lost under treatment) in assay [4] was found to be 32.3%.
For the compound `Cc1c(C(=O)NCCCn2ccnc2)oc2ccc(N(Cc3ccc(Cl)cc3)S(=O)(=O)c3ccc(Cl)cc3)cc12`, the IC50 is 2.43 µM in assay [1], 1.89 µM in assay [2], more than 40 µM in the assay with MCF7 and 7.25 µM in assay [3]. The inhibition in assay [4] is 27%.
Take `CCOC(=O)c1oc2ccc(N(Cc3ccc(Br)cc3)S(=O)(=O)c3ccc(Br)cc3)cc2c1C`: the values for the IC50 in assay [1] and in assay [2] were 10.9 µM and 5.22 µM, respectively.
On the same counts, the results for `CCOC(=O)c1oc2ccc(N(Cc3ccccc3)S(=O)(=O)c3cccc(Cl)c3)cc2c1C` are more than 40 µM and more than 40 µM.
For `CCOC(=O)c1oc2ccc(N(Cc3ccccc3)S(=O)(=O)c3ccccc3Br)cc2c1C`, the half-maximal inhibitory concentration (IC50) in assay [1] and in assay [2] was more than 40 µM throughout.
As to `Cc1c(C(=O)NCCN(C)C)oc2ccc(N(Cc3ccc(Cl)cc3)S(=O)(=O)c3ccc(Cl)cc3)cc12`, the IC50 in assay [1] was 5.38 µM; in assay [2], 3.87 µM; in the assay on MCF7, 5.84 µM; in assay [3], 10.8 µM. For the same compound, in assay [4], the inhibition worked out at 12.7%.
Turning to `CCOC(=O)c1oc2ccc(NS(=O)(=O)c3ccc(F)cc3)cc2c1C`, the IC50 in assay [1] is 10.5 µM; in assay [2], more than 40 µM.
Consider `CCOC(=O)c1oc2ccc(N(Cc3ccccc3)S(=O)(=O)c3ccc(OC)cc3)cc2c1C`, for which the IC50 in assay [1] and in assay [2] was more than 40 µM throughout.
In the case of `CCOC(=O)c1oc2ccc(NS(=O)(=O)c3ccc(Br)cc3)cc2c1C`, the figures for the IC50 in assay [1] and in assay [2] were 9.31 µM and more than 40 µM, respectively.
On the same counts, the results for `CCOC(=O)c1oc2ccc(N(Cc3ccccc3)S(=O)(=O)c3ccc([N+](=O)[O-])cc3)cc2c1C` are more than 40 µM and more than 40 µM.
On the same counts, the results for `Cc1c(C(=O)O)oc2ccc(N(Cc3ccccc3)S(=O)(=O)c3ccc(F)cc3)cc12` are more than 40 µM and more than 40 µM.
In the case of `CCOC(=O)c1oc2ccc(N(Cc3ccccc3)S(=O)(=O)c3ccc(Br)cc3)cc2c1C`, the half-maximal inhibitory concentration (IC50) in assay [1] came to 9.46 µM; in assay [2] it was 8.7 µM.
Regarding `COc1ccc(C2=N[C@@H](c3ccc(Cl)cc3)[C@@H](c3ccc(Cl)cc3)N2C(=O)N2CCNC(=O)C2)c(OC(C)C)c1` [NUTLIN-3], the IC50 in assay [1] was 5.21 µM; in assay [2] it was 21.5 µM; with MCF7, 5.01 µM; in assay [3], 29.6 µM. Further, the inhibition in assay [4] is less than 10%. The inhibition entry in assay [5] and in assay [6] was “inactive” in each case.
For the compound `Cc1c(C(=O)O)oc2ccc(N(Cc3ccccc3)S(=O)(=O)c3ccc(C(F)(F)F)cc3)cc12`, the half-inhibitory concentration (IC50) in assay [1] was 4.13 µM; in assay [2], 21.1 µM.
On the same counts, the results for `CCOC(=O)c1oc2ccc(N(C(C)C)S(=O)(=O)c3ccc(Cl)cc3)cc2c1C` are 7.83 µM and more than 40 µM.
On the same counts, the results for `Cc1c(C(=O)O)oc2ccc(N(Cc3ccccc3)S(=O)(=O)c3ccc(Br)cc3)cc12` are 7.09 µM and 20 µM.
As to `Cc1c(C(=O)O)oc2ccc(N(Cc3ccccc3)S(=O)(=O)c3ccc(Cl)cc3)cc12`, the 50% inhibitory concentration (IC50) in assay [1] turned out to be 9.13 µM; in assay [2], 33.4 µM.
Regarding `Cc1c(C(=O)O)oc2ccc(N(Cc3ccc(Cl)cc3)S(=O)(=O)c3ccc(Cl)cc3)cc12`, the figures for the half-inhibitory concentration (IC50) in assay [1] and in assay [2] were 3.67 µM and 27.2 µM, respectively.
`CCOC(=O)c1oc2ccc(NS(=O)(=O)c3ccc(Cl)cc3)cc2c1C`: the half-maximal inhibitory concentration (IC50) was 24.3 µM in assay [1] and more than 40 µM in assay [2].
On the same counts, the results for `CCOC(=O)c1oc2ccc(N(Cc3ccccc3)S(=O)(=O)c3cccc(Br)c3)cc2c1C` are more than 40 µM and more than 40 µM.
On the same counts, the results for `Cc1c(C(=O)O)oc2ccc(N(Cc3ccc(Br)cc3)S(=O)(=O)c3ccc(Br)cc3)cc12` are 8.58 µM and more than 40 µM.
As to `Cc1c(C(=O)NCCN(C)C)oc2ccc(N(Cc3ccccc3)S(=O)(=O)c3ccc(Cl)cc3)cc12`, the IC50 stood at 7.06 µM in assay [1], 6.31 µM in assay [2], 6.72 µM with MCF7 and 9.24 µM in assay [3]. In addition, in assay [4], the inhibition is less than 10%.
Consider `CCOC(=O)c1oc2ccc(N(Cc3ccccc3)S(=O)(=O)c3ccc(F)cc3)cc2c1C`, for which the results for the concentration for half-maximal inhibition (IC50) in assay [1] and in assay [2] were 5.82 µM and 33.1 µM, respectively.
On the same counts, the results for `CCOC(=O)c1oc2ccc(N(CC3CCCCC3)S(=O)(=O)c3ccc(Cl)cc3)cc2c1C` are 14.1 µM and more than 40 µM.
On the same counts, the results for `CCOC(=O)c1oc2ccc(N(Cc3ccc(Cl)cc3)S(=O)(=O)c3ccc(Cl)cc3)cc2c1C` are 9.48 µM and 9.64 µM.
On the same counts, the results for `CCOC(=O)c1oc2ccc(NS(=O)(=O)c3ccc(C(F)(F)F)cc3)cc2c1C` are 5.03 µM and 24.2 µM.
As for `CCOC(=O)c1oc2ccc(N(Cc3ccccc3)S(=O)(=O)c3ccc(Cl)cc3)cc2c1C`, the values for the IC50 in assay [1] and in assay [2] were 4.86 µM and 23.2 µM, respectively.
On the same counts, the results for `CCOC(=O)c1oc2ccc(N(Cc3ccccc3)S(=O)(=O)c3ccccc3)cc2c1C` are more than 40 µM and more than 40 µM.
